Experimental data: US10183021B2, “sGC stimulators” (Ironwood Pharmaceuticals, Inc., priority 2013, dated 2019)

Biological target: soluble guanylate cyclase (sGC) (Homo sapiens (Human), UniProt Q02108+Q02153)
Experiment: sGC-HEK-cGMP assay with SNP incubation, LC/MS detection (Example 2A)
Format: cell-based
Conditions: HEK293 cells, 10 μM SNP, LC/MS detection; for Emax: 100% = BAY 41-2272 at 10 μM, read-out: HEK assay Emax - unconstrained (%); for EC50: top of curve not fitted to 100%, read-out: HEK assay EC50 - unconstrained
Method: Human embryonic kidney cells (HEK293), endogenously expressing soluble guanylate cyclase (sGC), were used to evaluate the activity of test compounds. Compounds stimulating the sGC receptor should cause an increase in the intracellular concentration of cGMP. HEK 293 cells were seeded in Dulbecco's Modification of Eagle's Medium supplemented with fetal bovine serum (10% final) and L-glutamine (2 mM final) in a 200 L volume at a density of 1×10^5 cells/well in a poly-D-lysine coated 96 well flat bottom plate and grown overnight at 37° C. Medium was aspirated and cells were washed with 1× Hank's Buffered Saline Salt Solution (200 μL). Cells were then incubated for 15 minutes at 37° C. with 200 μL of a 0.5 mM 3-isobutyl-1-methylxanthine (IBMX) solution. Test article and sodium nitroprusside solutions (x μM concentration for test article solution and 10 μM concentration for SNP solution; wherein x is one of the following concentrations: 30 μM, 10 μM, 3 μM, 1 μM, 0.3 μM, 0.1 μM, 0.03 μM, 0.01 μM, 0.003 μM, 0.001 μM, 0.0003 μM or 0.0001 μM) were then added to the assay mixture (2 μL each) and the resulting mixture incubated at 37° C. for 10 minutes. After the 10 minute incubation, the assay mixture was aspirated and 0.1M HCl (200 μL) was added to the cells. The plate was incubated at 4° C. for 30 minutes in the 0.1M HCl to stop the reaction and lyse the cells. The plates were then centrifuged at 1,200 g for 5 minutes at room temperature. Supernatants were collected and transferred to a new flat bottom 96 well plate for analysis by HPLC-MS. Vehicle controls were carried out using DMSO (1%) solutions. A known sGC stimulator, BAY 41-2272, was used as the positive control. Samples were diluted with an equal volume of 1 M Ammonium Acetate (pH 7) to neutralize samples for better chromatography. A 2× cGMP standard solution was prepared in 0.1 M HCl and then diluted with an equal volume of 1 M Ammonium Acetate, with the following final concentrations in nM: 1024, 512, 256, 128, 64, 32, 16, 8, 4, 2, 1. cGMP concentrations in the test plates were determined from each sample using the LC/MS conditions shown in Table 2 below and the calculated cGMP standard curve. EC50 values were calculated from concentration-response curves generated with GraphPad Prism Software. Data were normalized to a high control using the following equation: 100*(Sample−Low Control)/(High Control−Low Control), where the low control is the average of 6 samples treated with 1% DMSO, and the high control is the average of 8-12 samples treated with 10 uM BAY 41-2272. Data were fit using a non-linear regression, sigmoidal dose response, 3 parameter fits.

soluble guanylate cyclase (sGC), sequence (Q02153 whole entry): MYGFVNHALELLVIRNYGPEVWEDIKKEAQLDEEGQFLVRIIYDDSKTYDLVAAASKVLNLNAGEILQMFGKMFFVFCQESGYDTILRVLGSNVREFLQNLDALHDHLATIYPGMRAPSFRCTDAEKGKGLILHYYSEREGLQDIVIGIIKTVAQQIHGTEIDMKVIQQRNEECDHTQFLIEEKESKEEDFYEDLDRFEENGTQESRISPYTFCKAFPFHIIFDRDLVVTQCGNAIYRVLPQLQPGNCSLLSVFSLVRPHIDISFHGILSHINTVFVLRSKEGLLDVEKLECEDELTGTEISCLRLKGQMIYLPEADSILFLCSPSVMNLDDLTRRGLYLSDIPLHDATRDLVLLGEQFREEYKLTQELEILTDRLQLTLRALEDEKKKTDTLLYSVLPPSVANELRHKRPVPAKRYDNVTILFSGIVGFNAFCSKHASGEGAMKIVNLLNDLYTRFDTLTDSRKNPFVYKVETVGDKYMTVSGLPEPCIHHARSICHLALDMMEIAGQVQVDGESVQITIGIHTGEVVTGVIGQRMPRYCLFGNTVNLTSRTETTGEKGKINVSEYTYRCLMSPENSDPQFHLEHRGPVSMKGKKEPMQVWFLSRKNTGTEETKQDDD
soluble guanylate cyclase (sGC), sequence (Q02108 whole entry): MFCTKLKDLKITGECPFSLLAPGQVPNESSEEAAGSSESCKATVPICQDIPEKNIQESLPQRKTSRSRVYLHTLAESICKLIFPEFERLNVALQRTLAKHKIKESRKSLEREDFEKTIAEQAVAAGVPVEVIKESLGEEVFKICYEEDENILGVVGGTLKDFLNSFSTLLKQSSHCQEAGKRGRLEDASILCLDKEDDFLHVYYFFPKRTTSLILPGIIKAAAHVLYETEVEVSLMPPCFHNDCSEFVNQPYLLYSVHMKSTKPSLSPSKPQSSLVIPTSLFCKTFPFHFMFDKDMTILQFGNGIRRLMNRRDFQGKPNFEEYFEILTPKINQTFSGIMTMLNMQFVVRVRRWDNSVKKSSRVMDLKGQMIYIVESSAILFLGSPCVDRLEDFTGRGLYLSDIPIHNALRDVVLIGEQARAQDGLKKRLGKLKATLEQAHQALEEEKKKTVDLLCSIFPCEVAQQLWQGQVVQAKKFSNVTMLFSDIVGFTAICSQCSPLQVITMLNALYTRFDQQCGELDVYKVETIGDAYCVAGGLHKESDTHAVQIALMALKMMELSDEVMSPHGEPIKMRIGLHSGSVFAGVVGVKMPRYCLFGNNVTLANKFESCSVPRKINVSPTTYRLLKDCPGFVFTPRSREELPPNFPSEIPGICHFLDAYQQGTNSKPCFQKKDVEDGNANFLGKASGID

SMILES | Emax [%] | EC50 [µM]
CN(Cc1ccccc1C(=O)O)c1nc(-c2cc(-c3ccon3)n(Cc3ccccc3F)n2)ncc1F [Compound I-279] | 80 to 100 | 0.1 to 0.5
CC1COCCN1c1nc(-c2cc(-c3ccon3)n(Cc3ccccc3F)n2)ncc1F (stereo not shown) [Compound I-33] | 60 to 80 | 0.1 to 0.5
CCOC(=O)CN(CC(C)C)c1nc(-c2cc(-c3ccon3)n(Cc3ccccc3F)n2)ncc1F [Compound I-205] | 60 to 80 | 0.5 to 1
CC(C)C[C@@H](C(=O)O)N(C)c1nc(-c2cc(-c3ccon3)n(Cc3ccccc3F)n2)ncc1F [Compound I-137] | 80 to 100 | 0.1 to 0.5
CC(C)[C@@H](CNc1nc(-c2cc(-c3ccon3)n(Cc3ccccc3F)n2)ncc1F)C(=O)O [Compound I-173] | 60 to 80 | 0.1 to 0.5
O=C(O)C1Cc2ccccc2CN1c1nc(-c2cc(-c3ccon3)n(Cc3ccccc3F)n2)ncc1F (stereo not shown) [Compound I-119] | 40 to 60 | 0.1 to 0.5
NC(=O)C1CCCN(c2nc(-c3cc(-c4ccon4)n(Cc4ccccc4F)n3)ncc2F)C1 (stereo not shown) [Compound I-66] | 60 to 80 | 0.1 to 0.5
NC1(C(=O)O)CCN(c2nc(-c3cc(-c4ccon4)n(Cc4ccccc4F)n3)ncc2F)CC1 [Compound I-299] | 40 to 60 | 1 to 5
COC(=O)CC1CCN(c2nc(-c3cc(-c4ccon4)n(Cc4ccccc4F)n3)ncc2F)CC1 [Compound I-231] | 40 to 60 | > 10
CS(=O)(=O)N1CCN(c2nc(-c3cc(-c4ccon4)n(Cc4ccccc4F)n3)ncc2F)CC1 [Compound I-125] | 40 to 60 | 0.001 to 0.1
OCC1C[C@H]2CC[C@@H](C1)N2c1nc(-c2cc(-c3ccon3)n(Cc3ccccc3F)n2)ncc1F (stereo partly shown) [Compound I-82] | 60 to 80 | 0.1 to 0.5
O=C(O)C(Nc1nc(-c2cc(-c3ccon3)n(Cc3ccccc3F)n2)ncc1F)C1CCCCC1 (stereo not shown) [Compound I-233] | 60 to 80 | 0.1 to 0.5
COC(=O)C1CCCN1c1nc(-c2cc(-c3ccon3)n(Cc3ccccc3F)n2)ncc1F (stereo not shown) [Compound I-34] | 40 to 60 | 0.5 to 1
CC(C)(C)Nc1nc(-c2cc(-c3ccon3)n(Cc3ccccc3F)n2)ncc1F [Compound I-65] | 60 to 80 | 0.5 to 1
Fc1ccccc1Cn1nc(-c2ncc(F)c(NC3CCCCC3)n2)cc1-c1ccon1 [Compound I-9] | 80 to 100 | 0.1 to 0.5
CN(CCCC(=O)O)c1nc(-c2cc(-c3ccon3)n(Cc3ccccc3F)n2)ncc1F [Compound I-215] | 40 to 60 | 1 to 5
CCOC(=O)CN(C)c1nc(-c2cc(-c3ccon3)n(Cc3ccccc3F)n2)ncc1F [Compound I-167] | 80 to 100 | 0.001 to 0.1
O=C(O)C1(Nc2nc(-c3cc(-c4ccon4)n(Cc4ccccc4F)n3)ncc2F)CCC1 [Compound I-94] | 60 to 80 | 1 to 5
O=C(O)c1ccc(CNc2nc(-c3cc(-c4ccon4)n(Cc4ccccc4F)n3)ncc2F)cc1 [Compound I-280] | 100 to 120 | 0.1 to 0.5
O=C(O)C1(c2ccc(F)cc2)CCN(c2nc(-c3cc(-c4ccon4)n(Cc4ccccc4F)n3)ncc2F)CC1 [Compound I-255] | 80 to 100 | 0.001 to 0.1
O=C(O)C12CCCC1CN(c1nc(-c3cc(-c4ccon4)n(Cc4ccccc4F)n3)ncc1F)C2 (stereo not shown) [Compound I-208] | 80 to 100 | 0.001 to 0.1
C[C@H](C[C@@H](Nc1nc(-c2cc(-c3ccon3)n(Cc3ccccc3F)n2)ncc1F)C(=O)O)C(F)(F)F [Compound I-225] | 80 to 100 | 0.001 to 0.1
O=C(O)[C@@H](CO)Nc1nc(-c2cc(-c3ccon3)n(Cc3ccccc3F)n2)ncc1F [Compound I-112] | 20 to 40 | 1 to 5
Oc1ccccc1CNc1nc(-c2cc(-c3ccon3)n(Cc3ccccc3F)n2)ncc1F [Compound I-288] | 80 to 100 | 0.1 to 0.5
CCOC(=O)CN(c1nc(-c2cc(-c3ccon3)n(Cc3ccccc3F)n2)ncc1F)C1(C)CCOCC1 [Compound I-246] | 40 to 60 | 1 to 5

SMILES | Emax [%] | EC50 [µM]
CC(C)(CC(=O)O)Nc1nc(-c2cc(-c3ccon3)n(Cc3ccccc3F)n2)ncc1F [Compound I-277] | 60 to 80 | 0.1 to 0.5
Fc1ccccc1Cn1nc(-c2ncc(F)c(N3CCC4(CCOCC4)C3)n2)cc1-c1ccon1 [Compound I-43] | 60 to 80 | 0.001 to 0.1
OC1CCCN(c2nc(-c3cc(-c4ccon4)n(Cc4ccccc4F)n3)ncc2F)C1 (stereo not shown) [Compound I-18] | 60 to 80 | –
O=C(O)C1(CNc2nc(-c3cc(-c4ccon4)n(Cc4ccccc4F)n3)ncc2F)CC1 [Compound I-210] | 100 to 120 | 0.001 to 0.1
O=C(O)[C@@H](Nc1nc(-c2cc(-c3ccon3)n(Cc3ccccc3F)n2)ncc1F)c1ccccc1 [Compound I-117] | 40 to 60 | 1 to 5
CC(C)(C)OC(=O)N1CCC2(CCN(c3nc(-c4cc(-c5ccon5)n(Cc5ccccc5F)n4)ncc3F)C2)C1 (stereo not shown) [Compound I-45] | 40 to 60 | 1 to 5
CC(C)[C@@H](Nc1nc(-c2cc(-c3ccon3)n(Cc3ccccc3F)n2)ncc1F)C(=O)O [Compound I-86] | 80 to 100 | 0.1 to 0.5
O=C(O)[C@@H](Cc1ccccc1)Nc1nc(-c2cc(-c3ccon3)n(Cc3ccccc3F)n2)ncc1F [Compound I-116] | 60 to 80 | 0.1 to 0.5
CN(C)CCNc1nc(-c2cc(-c3ccon3)n(Cc3ccccc3F)n2)ncc1F [Compound I-7] | 40 to 60 | 1 to 5
CC(C)CN(CC(=O)O)c1nc(-c2cc(-c3ccon3)n(Cc3ccccc3F)n2)ncc1F [Compound I-209] | 80 to 100 | 0.5 to 1
CS(=O)(=O)c1ccc(CNc2nc(-c3cc(-c4ccon4)n(Cc4ccccc4F)n3)ncc2F)cc1 [Compound I-287] | 80 to 100 | 0.1 to 0.5
CC(C)(C)OC(=O)NC1CCCN(c2nc(-c3cc(-c4ccon4)n(Cc4ccccc4F)n3)ncc2F)C1 (stereo not shown) [Compound I-25] | 40 to 60 | 0.5 to 1
O=C(O)c1ccccc1C1CCN(c2nc(-c3cc(-c4ccon4)n(Cc4ccccc4F)n3)ncc2F)CC1 [Compound I-254] | 80 to 100 | 0.001 to 0.1
O=C(O)C(CCNc1nc(-c2cc(-c3ccon3)n(Cc3ccccc3F)n2)ncc1F)c1ccccc1 (stereo not shown) [Compound I-292] | 80 to 100 | 0.001 to 0.1
CS(=O)(=O)C1CCN(c2nc(-c3cc(-c4ccon4)n(Cc4ccccc4F)n3)ncc2F)CC1 [Compound I-175] | 100 to 120 | 0.001 to 0.1
NC1CCCN(c2nc(-c3cc(-c4ccon4)n(Cc4ccccc4F)n3)ncc2F)C1 (stereo not shown) [Compound I-37] | 60 to 80 | 1 to 5
COC(=O)C1CCCCN1c1nc(-c2cc(-c3ccon3)n(Cc3ccccc3F)n2)ncc1F (stereo not shown) [Compound I-48] | 60 to 80 | 1 to 5
CN(CC(=O)O)c1nc(-c2cc(-c3ccon3)n(Cc3ccccc3F)n2)ncc1F [Compound I-176] | 40 to 60 | 1 to 5
O=c1ccc(CNc2nc(-c3cc(-c4ccon4)n(Cc4ccccc4F)n3)ncc2F)c[nH]1 [Compound I-278] | 80 to 100 | 0.1 to 0.5
OC[C@@H]1CCCN1c1nc(-c2cc(-c3ccon3)n(Cc3ccccc3F)n2)ncc1F [Compound I-13] | 60 to 80 | 0.1 to 0.5
O=C(O)[C@@H](Nc1nc(-c2cc(-c3ccon3)n(Cc3ccccc3F)n2)ncc1F)C1CC1 [Compound I-227] | 20 to 40 | 0.1 to 0.5
COCCC(Nc1nc(-c2cc(-c3ccon3)n(Cc3ccccc3F)n2)ncc1F)C(=O)O (stereo not shown) [Compound I-232] | 80 to 100 | 1 to 5
CC(C)[C@@H](C(=O)O)N(C)c1nc(-c2cc(-c3ccon3)n(Cc3cccc(F)c3F)n2)ncc1F [Compound I-235] | 100 to 120 | 0.001 to 0.1
O=C(O)CC1CCCN(c2nc(-c3cc(-c4ccon4)n(Cc4ccccc4F)n3)ncc2F)C1 (stereo not shown) [Compound I-229] | 20 to 40 | > 10
